± gives the expanded uncertainty stated by the source.
Assay: xn = mol fraction of the nth substance listed
Settings: Fluid (supercritical or subcritical phases); for speed of sound: Frequency=5 MHz, Pulse-echo method; for mass density: Vibrating tube method

## O=C=O [carbon dioxide] + CO
263.18 K, 64760 kPa, x1 = 0.9803
  speed of sound: 1035.7 ± 1.3 m/s
263.18 K, 64880 kPa, x1 = 0.7534
  speed of sound: 1088.8 ± 1.4 m/s
263.18 K, 70160 kPa, x1 = 0.9803
  speed of sound: 1058.2 ± 1.4 m/s
263.18 K, 70360 kPa, x1 = 0.7534
  speed of sound: 1110.8 ± 1.4 m/s
263.18 K, 75340 kPa, x1 = 0.7534
  speed of sound: 1130 ± 1.5 m/s
263.18 K, 75410 kPa, x1 = 0.9803
  speed of sound: 1078.8 ± 1.4 m/s
263.18 K, 79750 kPa, x1 = 0.9803
  speed of sound: 1095.2 ± 1.4 m/s
263.18 K, 80260 kPa, x1 = 0.7534
  speed of sound: 1148.4 ± 1.5 m/s
263.18 K, 89760 kPa, x1 = 0.7534
  speed of sound: 1182.3 ± 1.5 m/s
263.18 K, 89940 kPa, x1 = 0.9803
  speed of sound: 1132.1 ± 1.5 m/s
263.18 K, 99680 kPa, x1 = 0.9803
  speed of sound: 1165 ± 1.5 m/s
263.18 K, 100040 kPa, x1 = 0.7534
  speed of sound: 1216.8 ± 1.6 m/s
263.18 K, 109950 kPa, x1 = 0.9803
  speed of sound: 1197.7 ± 1.5 m/s
263.18 K, 110590 kPa, x1 = 0.7534
  speed of sound: 1250.3 ± 1.6 m/s
263.18 K, 119810 kPa, x1 = 0.7534
  speed of sound: 1278.1 ± 1.6 m/s
263.18 K, 120700 kPa, x1 = 0.9803
  speed of sound: 1230.1 ± 1.6 m/s
263.18 K, 140780 kPa, x1 = 0.9803
  speed of sound: 1286.1 ± 1.6 m/s
263.18 K, 141280 kPa, x1 = 0.7534
  speed of sound: 1338.3 ± 1.7 m/s
263.18 K, 159890 kPa, x1 = 0.7534
  speed of sound: 1386.5 ± 1.8 m/s
263.18 K, 160950 kPa, x1 = 0.9803
  speed of sound: 1337.6 ± 1.7 m/s
263.18 K, 179550 kPa, x1 = 0.7534
  speed of sound: 1433.7 ± 1.8 m/s
263.18 K, 179550 kPa, x1 = 0.9803
  speed of sound: 1382.1 ± 1.8 m/s
263.19 K, 6000 kPa, x1 = 0.8502
  speed of sound: 691.2 ± 1 m/s
263.19 K, 9880 kPa, x1 = 0.8502
  speed of sound: 731.2 ± 1 m/s
263.19 K, 14650 kPa, x1 = 0.8502
  speed of sound: 773.8 ± 1.1 m/s
263.19 K, 19850 kPa, x1 = 0.8502
  speed of sound: 814.7 ± 1.1 m/s
263.19 K, 24990 kPa, x1 = 0.8502
  speed of sound: 850.9 ± 1.1 m/s
263.19 K, 29690 kPa, x1 = 0.8502
  speed of sound: 881.1 ± 1.2 m/s
263.19 K, 35020 kPa, x1 = 0.8502
  speed of sound: 912.8 ± 1.2 m/s
263.19 K, 40080 kPa, x1 = 0.8502
  speed of sound: 940.7 ± 1.2 m/s
263.19 K, 44910 kPa, x1 = 0.8502
  speed of sound: 965.8 ± 1.3 m/s
263.19 K, 50170 kPa, x1 = 0.8502
  speed of sound: 991.7 ± 1.3 m/s
263.19 K, 55230 kPa, x1 = 0.8502
  speed of sound: 1015.1 ± 1.3 m/s
263.19 K, 60100 kPa, x1 = 0.8502
  speed of sound: 1036.7 ± 1.3 m/s
263.19 K, 64650 kPa, x1 = 0.8502
  speed of sound: 1056 ± 1.4 m/s
263.19 K, 70030 kPa, x1 = 0.8502
  speed of sound: 1078 ± 1.4 m/s
263.19 K, 74380 kPa, x1 = 0.8502
  speed of sound: 1095.2 ± 1.4 m/s
263.19 K, 80050 kPa, x1 = 0.8502
  speed of sound: 1116.4 ± 1.4 m/s
263.19 K, 90050 kPa, x1 = 0.8502
  speed of sound: 1152.6 ± 1.5 m/s
263.19 K, 100540 kPa, x1 = 0.8502
  speed of sound: 1187.6 ± 1.5 m/s
263.19 K, 110230 kPa, x1 = 0.8502
  speed of sound: 1218.2 ± 1.6 m/s
263.19 K, 120050 kPa, x1 = 0.8502
  speed of sound: 1247.8 ± 1.6 m/s
263.19 K, 140150 kPa, x1 = 0.8502
  speed of sound: 1303.4 ± 1.7 m/s
263.19 K, 150270 kPa, x1 = 0.8502
  speed of sound: 1329.1 ± 1.7 m/s
273.15 K, 4600 kPa, x1 = 0.97
  mass density: 940.38 ± 0.8 kg/m3
273.15 K, 4625 kPa, x1 = 0.97
  mass density: 940.6 ± 0.8 kg/m3
273.15 K, 4650 kPa, x1 = 0.97
  mass density: 940.77 ± 0.8 kg/m3
273.15 K, 4675 kPa, x1 = 0.97
  mass density: 941.01 ± 0.8 kg/m3
273.15 K, 4700 kPa, x1 = 0.97
  mass density: 941.48 ± 0.8 kg/m3
273.15 K, 4725 kPa, x1 = 0.97
  mass density: 941.61 ± 0.8 kg/m3
273.15 K, 4750 kPa, x1 = 0.97
  mass density: 941.7 ± 0.8 kg/m3
273.15 K, 4775 kPa, x1 = 0.97
  mass density: 942 ± 0.8 kg/m3
273.15 K, 4800 kPa, x1 = 0.97
  mass density: 942.41 ± 0.8 kg/m3
273.15 K, 4825 kPa, x1 = 0.97
  mass density: 942.58 ± 0.8 kg/m3
273.15 K, 4850 kPa, x1 = 0.97
  mass density: 942.76 ± 0.8 kg/m3
273.15 K, 4875 kPa, x1 = 0.97
  mass density: 942.95 ± 0.8 kg/m3
273.15 K, 4900 kPa, x1 = 0.97
  mass density: 943.14 ± 0.8 kg/m3
273.15 K, 4925 kPa, x1 = 0.97
  mass density: 943.32 ± 0.8 kg/m3
273.15 K, 4950 kPa, x1 = 0.97
  mass density: 943.48 ± 0.8 kg/m3
273.15 K, 4975 kPa, x1 = 0.97
  mass density: 943.65 ± 0.8 kg/m3
273.15 K, 5000 kPa, x1 = 0.97
  speed of sound: 570.5 ± 0.9 m/s

From the NIST ThermoML archive (doi:10.1016/j.jct.2016.03.026)
